Columns and labels:
[1] = biological target: T1, S. cerevisiae gluconokinase (YDR248C) (Saccharomyces cerevisiae, UniProt Q03786); assay: gluconokinase assay, HPAEC of products; type: biochemical; details: 1 mM gluconate, 5 mM ATP, 0.2 μM enzyme, 1x PBS, 30 °C, 30 min
T1 construct: full ORF with C-terminal His6-tag, expressed in and purified from S. cerevisiae
T1 sequence (Q03786 1-193): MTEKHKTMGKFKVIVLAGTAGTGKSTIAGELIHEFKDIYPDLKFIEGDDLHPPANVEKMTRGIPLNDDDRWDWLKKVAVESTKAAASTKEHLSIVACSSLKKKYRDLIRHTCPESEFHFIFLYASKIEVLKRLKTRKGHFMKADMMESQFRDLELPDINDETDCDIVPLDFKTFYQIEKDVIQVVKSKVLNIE

CBT-1 (NCU05853) = biological target: T2, CBT-1 (NCU05853) (Neurospora crassa, UniProt Q7S555); assay: yeast cell-based uptake assay, HPAEC of remaining sugar; details: pH 6.0, 30 °C, 30 min; 5 mM MES, 100 mM NaCl; S. cerevisiae cells expressing the transporter
T2 construct: expressed in S. cerevisiae from plasmid pRS426_NCU05853
From the text: yeast cell-based uptake assay, HPAEC of remaining sugar on CBT-1 (NCU05853) | only NCU05853 […] was capable of transporting cellobionic acid into the cell

CAP (NCU09425) = CAP (NCU09425) (Neurospora crassa, UniProt Q7S0S2); details: 2 mM cellobionate, 0.5 μM enzyme, 1x PBS, 30 °C, 30 min
CAP (NCU09425), sequence (Q7S0S2 whole entry): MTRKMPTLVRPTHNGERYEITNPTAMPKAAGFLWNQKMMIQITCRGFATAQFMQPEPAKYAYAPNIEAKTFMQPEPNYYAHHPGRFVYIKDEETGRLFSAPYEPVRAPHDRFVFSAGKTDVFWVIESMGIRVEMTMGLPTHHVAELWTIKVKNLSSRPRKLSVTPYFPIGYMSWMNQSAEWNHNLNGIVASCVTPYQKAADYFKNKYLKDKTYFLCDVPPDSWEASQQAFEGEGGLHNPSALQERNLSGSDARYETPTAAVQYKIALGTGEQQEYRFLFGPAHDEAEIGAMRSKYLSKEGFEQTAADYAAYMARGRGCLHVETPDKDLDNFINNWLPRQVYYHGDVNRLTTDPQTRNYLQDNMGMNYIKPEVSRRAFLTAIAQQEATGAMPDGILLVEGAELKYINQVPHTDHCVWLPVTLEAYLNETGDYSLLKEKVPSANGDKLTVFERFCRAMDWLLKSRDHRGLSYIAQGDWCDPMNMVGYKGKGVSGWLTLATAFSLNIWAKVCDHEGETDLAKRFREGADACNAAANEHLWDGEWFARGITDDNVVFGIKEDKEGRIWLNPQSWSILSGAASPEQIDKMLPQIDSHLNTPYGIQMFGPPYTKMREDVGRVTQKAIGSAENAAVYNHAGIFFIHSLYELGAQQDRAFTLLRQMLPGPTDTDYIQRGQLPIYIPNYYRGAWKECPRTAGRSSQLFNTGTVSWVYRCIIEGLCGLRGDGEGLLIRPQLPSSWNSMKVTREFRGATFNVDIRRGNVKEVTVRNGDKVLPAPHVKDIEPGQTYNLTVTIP

T2 sequence (Q7S555 entry or part of it): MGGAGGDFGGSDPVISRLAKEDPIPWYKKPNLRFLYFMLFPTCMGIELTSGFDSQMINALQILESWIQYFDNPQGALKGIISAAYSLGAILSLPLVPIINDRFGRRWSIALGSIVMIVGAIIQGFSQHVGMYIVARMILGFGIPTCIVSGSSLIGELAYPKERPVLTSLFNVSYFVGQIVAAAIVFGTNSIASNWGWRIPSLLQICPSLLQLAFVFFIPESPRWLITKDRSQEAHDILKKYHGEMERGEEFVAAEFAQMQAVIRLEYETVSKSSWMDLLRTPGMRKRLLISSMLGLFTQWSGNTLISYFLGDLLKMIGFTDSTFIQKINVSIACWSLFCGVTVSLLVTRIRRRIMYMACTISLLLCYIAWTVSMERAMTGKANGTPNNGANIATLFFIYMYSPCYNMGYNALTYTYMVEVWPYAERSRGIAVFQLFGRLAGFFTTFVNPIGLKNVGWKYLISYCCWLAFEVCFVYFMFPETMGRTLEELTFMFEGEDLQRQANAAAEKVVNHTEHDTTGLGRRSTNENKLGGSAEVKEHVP

| Structure (SMILES) | gluconokinase assay, HPAEC of products [1] | yeast cell-based uptake assay, HPAEC of remaining sugar (CBT-1 (NCU05853)) | phosphorolysis, HPAEC of products (CAP (NCU09425)) |
| --- | --- | --- | --- |
| O=C(O)[C@H](O)[C@@H](O)[C@H](O)[C@H](O)CO [A1, gluconic acid] | YDR248C has gluconokinase activity in vitro |  |  |
| O=C(O)[C@H](O)[C@@H](O)[C@H](O[C@@H]1O[C@H](CO)[C@@H](O)[C@H](O)[C@H]1O)[C@H](O)CO [A2, cellobionic acid] |  | only NCU05853 [...] was capable of transporting cellobionic acid into the cell | specifically cleaved cellobionic acid to gluconic acid and glucose 1-phosphate |

From PMC4537572, “Cellobionic acid utilization: from Neurospora crassa to Saccharomyces cerevisiae” (Biotechnology for Biofuels, 2015)
